Reference: patent US11904021B2, “Dual targeting and therapeutic nanoparticle for treating renal fibrosis” (The Chinese University of Hong Kong, priority 2020, dated 2024)
Where “and” joins values, the source holds several entries; their conditions need not be identical. Identical values can stand only once. Entries after “also recorded” stand apart in the source; their conditions may differ.

Assays:
type I collagen = assay: Anti-fibrosis efficacy: IHC of type I collagen in UUO kidney; format: in vivo, Balb/c mice; settings: for fractional area of type I collagen in UUO kidney: Day 14 post-UUO surgery (7 days post injection)
Experimental: (§1) Mouse kidney tissue—Two slides from each kidney were selected for each set of stains such that two section-containing slides were at least 200 μm away from each other. IHC staining was performed on paraffin sections using the microwave-based antigen retrieval technique^32. Tissue sections were deparaffinized and rehydrated to water. After placing the slides in citrate buffer (10 mM citric acid, pH 6.0), the slides were heated in the microwave oven for 3 min under high power (˜95-100° C.) and for 20 more min under low power. After cooling the slides in the heated solution for 30 min, they were rinsed in distilled water twice and in PBS for 5 min. Next, the slides were blocked with 2.5% normal horse serum (Vector Laboratories) for 2 h and incubated with 60 μL of primary antibodies [1 μg/mL for type I collagen (1310-01; Southern BioTech), 0.048 μg/mL for α-SMA (ab150301; Abcam)) 0.625 μg/mL for folate receptor (ab67422; Abcam), 1.25 μg/mL for CD3 (ab16669; Abcam), 1.25 μg/mL for Wnt5b (ab93134; Abcam), and pre-diluted β-catenin (ab15180; Abcam)] at 4° C. overnight. Slides were then washed in PBS and treated with 3% H2O2 (Merck Millipore) for 30 min, rinsed again, and incubated with ˜50 μL of secondary antibodies (ImmPRESS HRP Polymer detection Kit, Vector Laboratories) for 30 min. The sections were developed sequentially by using 3,3′-diaminobenzidine (DAB) enzyme substrate (ImmPACT™ DAB, Vector Laboratories) for 2 min. All slides were counter-stained with Mayer's hematoxylin for 3 min, washed in distilled water, dried in 90% ethanol, and mounted by using xylene-based mounting medium. Bright-field images were acquired using the Nikon Eclipse Ni (DS-Ri2) microscope.
FA was dissolved in sterile BioPerformance Certified DMSO (Sigma) and formulated in D5W prior to injection. The final concentration of DMSO was less than 1%. […]
(§2) The major measurable outcome was the expression level of collagen I, as quantified by the percentage area of IHC staining in the kidney sections. […]

[1] = system: α-smooth muscle actin (a-SMA); assay: Anti-fibrosis efficacy: IHC of α-SMA in UUO kidney; format: in vivo, Balb/c mice; settings: Day 14 post-UUO surgery
Experimental: as §1, with “Slides were then washed in PBS and treated with 3% H2O2 (Merck Millipore) for 30 min, rinsed again, and incubated with ˜50 μL of secondary antibodies (ImmPRESS HRP Polymer detection Kit, Vector Laboratories) for 30 min. The sections were developed sequentially by using 3,3′-diaminobenzidine (DAB) enzyme substrate (ImmPACT™ DAB, Vector Laboratories) for 2 min. All slides were counter-stained with Mayer's hematoxylin for 3 min, washed in distilled water, dried in 90% ethanol, and mounted by using xylene-based mounting medium. Bright-field images were acquired using the Nikon Eclipse Ni (DS-Ri2) microscope.” left out
as §2

UUO mice = assay: In vivo toxicity test (organ histology, blood biochemistry, hematology); parameters: species or system Balb/c mice; settings: 7 days post-injection, efficacy dose
Experimental: Liver, heart, and spleen samples were fixed in 10% buffered formalin for 48 h and then stored in PBS at 4° C. Paraffin-embedded tissue sections of 4 μm thick were stained with hematoxylin and eosin for the tissue morphology by light microscopy. Blood, collected via an intracardiac puncture, was stored in a plain tube for biochemistry tests and in EDTA-coated tubes (Becton Dickinson) for hematology analysis. The blood samples were kept on ice and later sent to PathLab (Hong Kong) for analysis on the same day.

[2] = system: UUO mice with established renal fibrosis; assay: Efficacy study in UUO mice: kidney degeneration (gross appearance, histology, kidney weight, blood creatinine); format: in vivo, Balb/c mice; settings: treatment from Day 7, sacrifice Day 14 post-UUO surgery
Experimental: Mouse model of renal fibrosis was induced by the UUO surgery as previously described^12,29. Mice were anesthetized by an intraperitoneal injection of ketamine (100 mg/kg; Alfasan International B.V.) and xylazine (10 mg/kg; Alfasan International B.V.). The peritoneum was cut along the midline, and the left ureter was isolated and ligated twice by using a 5-0 suture (NingBo Cheng-He Microsurgical Instruments). The bowel was laid back and the peritoneum was closed with suture. The mice were placed under a heating lamp to maintain body temperature until they recovered from anesthesia. For analgesia, three injections of buprenorphine (Temgesic, 0.05 mg/kg) were given to the mice subcutaneously every 12 h after the surgery. To verify the development of fibrosis, the mice were sacrificed by cervical dislocation with anesthesia, and their kidneys were weighted (see FIG. 4) and processed for histological analysis (see FIGS. 5A-5C).
FA was dissolved in sterile BioPerformance Certified DMSO (Sigma) and formulated in D5W prior to injection. The final concentration of DMSO was less than 1%. Au3-PEG500-FA NPs formulated in D5W was injected i.v. at a dose of 0.12 mg-FA/kg-mouse (or equivalently 2.5 mg-Au/kg-mouse). […]
as §2

CD3+ T cells = assay: Anti-fibrosis efficacy: IHC of CD3+ T cell infiltration in UUO kidney; format: in vivo, Balb/c mice; settings: Day 14 post-UUO surgery
Experimental: as §1, with “Slides were then washed in PBS and treated with 3% H2O2 (Merck Millipore) for 30 min, rinsed again, and incubated with ˜50 μL of secondary antibodies (ImmPRESS HRP Polymer detection Kit, Vector Laboratories) for 30 min. The sections were developed sequentially by using 3,3′-diaminobenzidine (DAB) enzyme substrate (ImmPACT™ DAB, Vector Laboratories) for 2 min. All slides were counter-stained with Mayer's hematoxylin for 3 min, washed in distilled water, dried in 90% ethanol, and mounted by using xylene-based mounting medium. Bright-field images were acquired using the Nikon Eclipse Ni (DS-Ri2) microscope.” left out
as §2

[3] = system: type I collagen (gene ID: Col1a1); assay: Transcriptomic analysis (RNA-seq) of UUO kidneys; format: in vivo, Balb/c mice; settings: UUO kidney, 48 h post-injection, individual replicates 1-3
Experimental: UUO mice were i.v. injected with Au3-PEG500-FA NPs (i.e., […]) or free (i.e., 0.12 mg-FA/kg-mouse) on Day 7 after UUO surgery, at the same dosage used for the efficacy studies. An untreated group of UUO mice was also included as control. On Day 9 after UUO surgery (i.e., 48 h post-injection), the mice were sacrificed and the UUO kidneys were harvested. After cutting the UUO kidneys in half using a scalpel, one set of the halved kidneys was fixed in buffered formalin while the other set was snap frozen in liquid nitrogen and stored at −80° C. The formalin-fixed samples were dehydrated as mentioned above and embedded in paraffin blocks to generate tissue sections for validating the RNA-seq data. The frozen samples were sent to Beijing Genomics Institute (BGI) for RNA extraction, RNA library construction, and bioinformatic analysis. A total of 9 samples were sequenced using the BGISEQ platform, with ˜4.57 Gb generated per sample. The average mapping ratio with reference genome is 94.33%. Differential expressed genes (DEGs) detection, gene ontology analysis of DEG, and other analysis based on gene expression were performed by BGI. Further analysis of the DEGs was performed by filtering the list of DEGs with a FPKM threshold of 2 for at least 6 out of the 9 UUO samples tested.
Animals were sacrificed on Day 9. […]

[4] = neutral conditions, literature ref 45; cited from earlier work

| Compound | fractional area of type I collagen in UUO kidney (type I collagen) [%] | area with positive α-SMA in the UUO kidney [1] [%] | histological examination of liver, heart, and spleen (UUO mice) | gross tissue degeneration of UUO kidney [2] | type I collagen protein expression in UUO kidney versus saline group (type I collagen; 48 h post-injection (Day 9)) | mean population of CD3+ T cells (CD3+ T cells) [cells/frame] | Expression level (FPKM) for type I collagen [3] | solubility in water [4] |
| --- | --- | --- | --- | --- | --- | --- | --- | --- |
| C[C@H](CS)C(=O)N1CCC[C@H]1C(=O)O [Captopril] | 13.5 | 12.5 | did not observe noticeable toxicity | – | – | – | – | – |
| Nc1nc2ncc(CNc3ccc(C(=O)N[C@@H](CCC(=O)O)C(=O)O)cc3)nc2c(=O)[nH]1 [free FA, folic acid] | 11.2 | 10.7 | did not observe noticeable toxicity | rescued the UUO kidney from tissue degeneration; also recorded: did not degenerate | lower type I collagen protein expression than the saline group | 13 | 185.4 FPKM and 80.71 FPKM and 18.57 FPKM | poorly soluble in water |
